Assay results taken from patent US4468469A, “Substituted phenylacetic acids and salts as TBP blocking agents in iodothyronine immunoassays” (Miles Laboratories, Inc., priority 1982, dated 1984).
Several values for one entry are separate records, joined by “and”; a condition that tells them apart may be missing. Equal entries are not always repeated. Where two headings read alike, the source gives them in different places.

Assays:
[1] = test system: rabbit antibody to thyroxine; assay: Radioimmunoassay for thyroxine in serum with fenclofenac as TBP blocking agent; assay type: binding; conditions: 0.67 mM fenclofenac
Description: A radioimmunoassay for thyroxine in serum was conducted using fenclofenac as the TBP blocking agent. Serum standards in 100 μl aliquots containing known concentrations of thyroxine were combined with 290 μl of 0.1M sodium phosphate buffer, pH 6.5, an amount of fenclofenac to give a concentration of 0.67 mM in the final assay mixture, 2 μl of rabbit antibody to thyroxine, and a fixed amount of ^125 I-thyroxine (approximately 34,000 counts per minute per 100 μl in the final volume). After incubation at room temperature for 2 hours, 400 μl of 50% (w/v) polyethyleneglycol was added and the resulting precipitates collected by centrifugation. The radioactivity of each precipitate was then measured. The results are shown in Table 3 (μg/dl is micrograms per deciliter).

[2] = Optical absorption spectra; assay type: physicochemical
antibody to thyroxine = assay: Effect on the binding of 125I-thyroxine with antibody (polyethyleneglycol precipitation); conditions: for Percent 125I-Thyroxine in Precipitate: percent of radioactivity without fenclofenac, 180 min
Description: A series of antibody binding reactions were set up in 0.1M sodium phosphate buffer, pH 6.5, to give final volumes of 0.6 ml containing various concentrations of fenclofenac. Each reaction contained ^125 I-thyroxine, 20 μl of normal rabbit immunoglobulin, and 2 μl of antibody to thyroxine. The mixtures were incubated at room temperature for about 3 hours and then 400 μl of 50% (w/v) polyethyleneglycol was added. The precipitated proteins were collected by centrifugation and the radioactivity in each precipitate was measured. The results are shown in Table 2 as percent of the radioactivity in the precipitate without fenclofenac.

[3] = test system: rabbit antiserum to thyroxine / dihydrofolate reductase; assay: Enzyme inhibitor-labeled immunoassay for thyroxine in serum; assay type: biochemical; conditions: 0.5 mM fenclofenac in antibody reagent; for Absorbance Change per Minute: 340 nm
Description: An enzyme inhibitor-labeled immunoassay (U.S. Pat. No. 4,134,792) for thyroxine in serum was conducted using fenclofenac as the TBP blocking agent. Serum standards in 40 μl aliquots containing known concentrations of thyroxine were combined with 0.2 ml of an antibody reagent consisting of 21 μl rabbit antiserum to thyroxine in 1 ml of 0.1M sodium phosphate buffer, pH 6.5, containing 0.3M potassium chloride, 0.05% sodium azide, and 0.5 mM fencolfenac. After a 30 second incubation, to each mixture was added 0.2 ml of a conjugate reagent consisting of 0.63 mg/ml NADPH (0.65 mM), 0.0175 μM of a methotrexate-thyroxine conjugate [prepared as described in the U.S. patent application filed on even date herewith, assigned to the present assignee, entitled "Methotrexate-LabeledIodothyronine Conjugates Ser. No. 318,028, which application is incorporated herein by reference] in 10 mM sodium carbonate buffer, pH 9.5. […] After a further 5 minute incubation, to each mixture was added 50 μl of 2.5 mM dihydrofolate in 0.1M Tris.HCl, pH 8.5. Forty-five (45) seconds later, the absorbance of each solution at 340 nm was read over a 1 minute period.

apoglucose oxidase = apoglucose oxidase (Aspergillus niger, UniProt P13006); assay: Activation of apoglucose oxidase by FAD-thyroxine conjugate; assay type: biochemical; conditions: 5.5 min, pH 7; for activity at 160 µM: 0.16 mM fenclofenac; for activity at 310 µM: 0.31 mM fenclofenac; for activity at 630 µM: 0.63 mM fenclofenac; for activity at 1250 µM: 1.25 mM fenclofenac; for activity at 2500 µM: 2.5 mM fenclofenac; for activity at 5000 µM: 5.0 mM fenclofenac; for activity at 10000 µM: 10.0 mM fenclofenac
Description: In a second study, the effect of fenclofenac on the activation of apoglucose oxidase by an FAD-iodothyronine (T-4) conjugate was investigated. The activation of apoglucose oxidase was set up with different concentrations of fenclofenac and performed at 37° C. To two sets of assays containing 96 mM sodium phosphate, pH 7.0, 95 mM glucose, 1.0 mM sodium dichlorohydroxybenzene sulfonate (DHSA), 19 μg/ml peroxidase and various concentrations of sodium fenclofenac were added apoglucose oxidase, 4-aminoantipyrine, and anti(glucose oxidase) at final concentrations of 100 nM, 100 μM, 5 μl/ml respectively or 2.1 nM final concentration of an FAD-thyroxine conjugate. After preincubating the assay media for 5 min at 37° C. the FAD-thyroxine conjugate or the apoglucose oxidase reagent was added to the appropriate assay set. The absorbance at 520 nm was recorded after a 330 second incubation. The data are presented as a percentage of the absorbance recorded when no fenclofenac is present.

[4] = read-out: percentage of the absorbance at 520 nm without fenclofenac, Started with Apoenzyme Addition
[5] = read-out: percentage of the absorbance at 520 nm without fenclofenac, Started with Conjugate Addition

Chain of apoglucose oxidase (P13006 17-605): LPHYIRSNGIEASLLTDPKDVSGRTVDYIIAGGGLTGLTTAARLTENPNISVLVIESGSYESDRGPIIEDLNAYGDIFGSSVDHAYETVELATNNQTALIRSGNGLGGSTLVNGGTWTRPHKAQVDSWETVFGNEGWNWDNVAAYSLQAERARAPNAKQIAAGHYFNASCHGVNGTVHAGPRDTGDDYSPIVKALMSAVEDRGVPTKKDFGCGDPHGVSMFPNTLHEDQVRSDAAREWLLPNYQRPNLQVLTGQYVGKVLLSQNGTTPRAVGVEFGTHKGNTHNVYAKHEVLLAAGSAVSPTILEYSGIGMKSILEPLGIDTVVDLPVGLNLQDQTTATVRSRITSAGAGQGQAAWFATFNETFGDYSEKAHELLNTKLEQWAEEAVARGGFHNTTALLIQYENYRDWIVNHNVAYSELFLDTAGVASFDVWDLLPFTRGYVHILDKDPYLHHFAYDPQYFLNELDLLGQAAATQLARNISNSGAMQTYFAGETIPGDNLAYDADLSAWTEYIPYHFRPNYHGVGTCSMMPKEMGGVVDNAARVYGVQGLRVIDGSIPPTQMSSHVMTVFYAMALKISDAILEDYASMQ

## O=C(O)Cc1ccccc1Oc1ccc(Cl)cc1Cl [Fenclofenac, 2-(2,4-dichlorophenoxy)phenylacetic acid]
[1]; thyroxine standard 0 μg/dl
  Counts per Minute in Precipitate: 23,700 Counts per Minute
[1]; thyroxine standard 1.0 μg/dl
  Counts per Minute in Precipitate: 21,800 Counts per Minute
[1]; thyroxine standard 2.5 μg/dl
  Counts per Minute in Precipitate: 17,300 Counts per Minute
[1]; thyroxine standard 5.0 μg/dl
  Counts per Minute in Precipitate: 14,400 Counts per Minute
[1]; thyroxine standard 10.0 μg/dl
  Counts per Minute in Precipitate: 10,000 Counts per Minute
[1]; thyroxine standard 20.0 μg/dl
  Counts per Minute in Precipitate: 7,500 Counts per Minute
[2]; 0.5 mM solution in 0.1M sodium phosphate buffer, pH 6.5
  optical absorption above 300 nm: no significant absorption above 300 nanometers
[2]; 50 mM solution in dilute sodium hydroxide
  visible color of solution: no visible color
[2]; in 0.1M sodium hydroxide
  λmax: 275 nanometers and 269 nanometers
  λmin: 257 nanometers
[2]; in 0.1M sodium hydroxide, at λmax
  ε max (NaOH), extinction coefficient: 2060 M⁻¹ cm⁻¹ and 2050 M⁻¹ cm⁻¹
[2]; in 0.1M sodium hydroxide, at λmin
  ε min (NaOH), extinction coefficient: 1520 M⁻¹ cm⁻¹
Antibody to thyroxine; 0.2 mM fenclofenac
  Percent 125I-Thyroxine in Precipitate: 97%
Antibody to thyroxine; 0.5 mM fenclofenac
  Percent 125I-Thyroxine in Precipitate: 80%
Antibody to thyroxine; 1.0 mM fenclofenac
  Percent 125I-Thyroxine in Precipitate: 69%
Antibody to thyroxine; 2.5 mM fenclofenac
  Percent 125I-Thyroxine in Precipitate: 61%
Antibody to thyroxine; 5.0 mM fenclofenac
  Percent 125I-Thyroxine in Precipitate: 43%
Antibody to thyroxine; concentrations below about 2.5 mM
  inhibition of the antibody binding reaction: about 40%
Antibody to thyroxine; concentrations below about 5 mM
  inhibition of the antibody binding reaction: about 50%
[3]
  interference with the spectrophotometric response at 340 nm or the enzymatic reaction: did not substantially interfere
[3]; thyroxine standard 0 μg/dL
  Absorbance Change per Minute: 0.1682
[3]; thyroxine standard 1.0 μg/dL
  Absorbance Change per Minute: 0.1659
[3]; thyroxine standard 2.5 μg/dL
  Absorbance Change per Minute: 0.1648
[3]; thyroxine standard 10. μg/dL
  Absorbance Change per Minute: 0.1571
[3]; thyroxine standard 20. μg/dL
  Absorbance Change per Minute: 0.1498
Apoglucose oxidase; [4]
  activity at 160 µM: 100%
  activity at 310 µM: 98%
  activity at 630 µM: 97%
  activity at 1250 µM: 93%
  activity at 2500 µM: 90%
  activity at 5000 µM: 78%
  activity at 10000 µM: 53%
Apoglucose oxidase; [5]
  activity at 160 µM: 97%
  activity at 310 µM: 92%
  activity at 630 µM: 94%
  activity at 1250 µM: 95%
  activity at 2500 µM: 85%
  activity at 5000 µM: 74%
  activity at 10000 µM: 54%
Apoglucose oxidase; about 2 mM fenclofenac, FAD-thyroxine conjugate, read-out: colorimetric response diminished
  inhibition at 2000 µM: 8 to 10%
